The source of these data is patent US20240316047A1, “INHIBITORS OF RNA HELICASE DHX9 AND USES THEREOF” (ACCENT THERAPEUTICS, INC., priority 2022, published 2024).

The target in this assay is Human recombinant DHX9 protein (Homo sapiens (Human), UniProt Q08211). Nature of the assay: DHX9 ATPase assay (ADP-Glo). The settings on record: for IC50: read-out: DHX9 Biochemical Inflection Point. Format: biochemical. In general terms: In ADP-Glo the light output rises with the ADP produced.

Structures are written as SMILES.

Sequence of Human recombinant DHX9 protein (Q08211 whole entry): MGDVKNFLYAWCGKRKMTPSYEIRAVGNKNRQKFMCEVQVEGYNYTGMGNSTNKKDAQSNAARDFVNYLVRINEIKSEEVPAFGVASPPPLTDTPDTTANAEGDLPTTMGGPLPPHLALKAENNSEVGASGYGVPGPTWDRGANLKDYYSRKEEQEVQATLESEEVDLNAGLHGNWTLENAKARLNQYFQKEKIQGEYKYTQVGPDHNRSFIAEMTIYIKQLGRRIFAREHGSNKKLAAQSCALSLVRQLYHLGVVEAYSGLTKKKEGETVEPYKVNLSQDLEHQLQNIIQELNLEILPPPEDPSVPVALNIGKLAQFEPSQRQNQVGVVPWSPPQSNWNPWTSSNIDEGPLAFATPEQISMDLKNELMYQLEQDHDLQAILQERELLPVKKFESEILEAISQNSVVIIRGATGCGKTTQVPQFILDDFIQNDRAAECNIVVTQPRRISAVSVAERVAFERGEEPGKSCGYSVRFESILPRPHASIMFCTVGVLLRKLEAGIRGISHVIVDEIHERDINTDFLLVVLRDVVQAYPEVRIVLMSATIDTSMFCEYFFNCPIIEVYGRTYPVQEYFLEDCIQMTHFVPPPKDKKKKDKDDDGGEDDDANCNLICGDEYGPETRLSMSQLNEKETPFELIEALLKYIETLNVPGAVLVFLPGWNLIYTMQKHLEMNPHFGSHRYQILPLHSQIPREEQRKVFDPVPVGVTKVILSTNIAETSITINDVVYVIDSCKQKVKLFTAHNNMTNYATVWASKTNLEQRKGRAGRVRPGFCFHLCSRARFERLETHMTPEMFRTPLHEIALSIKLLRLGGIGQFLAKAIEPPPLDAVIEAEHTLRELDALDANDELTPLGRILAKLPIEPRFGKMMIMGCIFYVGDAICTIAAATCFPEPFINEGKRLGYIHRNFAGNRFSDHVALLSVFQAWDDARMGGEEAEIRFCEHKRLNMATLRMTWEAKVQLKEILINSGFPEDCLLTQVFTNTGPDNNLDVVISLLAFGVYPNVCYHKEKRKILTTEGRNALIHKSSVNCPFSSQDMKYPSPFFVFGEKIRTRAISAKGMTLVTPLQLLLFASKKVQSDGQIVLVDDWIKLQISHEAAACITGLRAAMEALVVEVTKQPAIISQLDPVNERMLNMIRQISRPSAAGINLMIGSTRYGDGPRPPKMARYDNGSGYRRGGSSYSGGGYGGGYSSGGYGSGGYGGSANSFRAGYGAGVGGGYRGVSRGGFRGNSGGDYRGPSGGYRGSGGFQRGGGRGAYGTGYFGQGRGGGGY

Consider `CS(=O)(=O)Nc1cc(Cl)cc(NC(=O)c2cnn(-c3ncc(F)cc3CCc3cccc(F)c3)c2)c1` [Example 251], for which the “DHX9 Biochemical Max Inhibition” value was found to be 64.7% and the IC50 is 5200 nM.
With `CS(=O)(=O)Nc1cc(Cl)cc(NC(=O)c2cnn(-c3ncccc3OCc3ncc[nH]3)c2)c1` [Example 252], the “DHX9 Biochemical Max Inhibition” value is 72.1% and the IC50 was 48.9 nM.
Turning to `CS(=O)(=O)Nc1cc(Cl)cc(NC(=O)c2cnn(-c3ncccc3OCc3ccn[nH]3)c2)c1` [Example 253], the “DHX9 Biochemical Max Inhibition” value amounted to 70% and the IC50 was 110 nM.
For `CS(=O)(=O)Nc1cc(Cl)cc(NC(=O)c2cnn(-c3ncccc3OCc3c[nH]cn3)c2)c1` [Example 254], the “DHX9 Biochemical Max Inhibition” value worked out at 64.1% and the IC50 was determined as 59.5 nM.
For the molecule `Cc1cccc(OCc2cccc(F)c2)c1-n1cc(C(=O)Nc2cc(Cl)cc(NS(C)(=O)=O)c2)cn1` [Example 255], the “DHX9 Biochemical Max Inhibition” value is given as 75.8% and the IC50 came to 72.4 nM.
On to `CS(=O)(=O)Nc1cc(Cl)cc(NC(=O)c2cnn(-c3ccccc3-c3cncc(F)c3)c2)c1` [Example 257], for which the “DHX9 Biochemical Max Inhibition” value was determined as 66.5% and the IC50 turned out to be 207 nM.
The like results for `CS(=O)(=O)Nc1cc(Cl)cc(NC(=O)c2cnn(-c3ncc(N4CC5(COC5)C4)cc3OCc3cc(F)cc(F)c3)c2)c1` [Example 258] were, in that order, 72.9% and 4.7 nM.
`Cc1cnc(-n2cc(C(=O)Nc3cc(Cl)cc(NS(C)(=O)=O)c3)cn2)c(OCc2cnco2)c1` [Example 261]: the “DHX9 Biochemical Max Inhibition” value was 71% and the IC50 was determined as 47.5 nM.
For the molecule `CS(=O)(=O)Nc1cc(Cl)cc(NC(=O)c2cnn(-c3ncccc3COc3cncc(F)c3)c2)c1` [Example 262], the “DHX9 Biochemical Max Inhibition” value is given as 66.5% and the IC50 was determined as 120 nM.
Regarding `CS(=O)(=O)Nc1cc(Cl)cc(NC(=O)c2cnn(-c3ccccc3Oc3ncccn3)c2)c1` [Example 263], the “DHX9 Biochemical Max Inhibition” value came out at 63.8% and the IC50 was 170 nM.
As for `CS(=O)(=O)Nc1cc(Cl)cc(NC(=O)c2cnn(-c3ccccc3Oc3cccnc3)c2)c1` [Example 264], the “DHX9 Biochemical Max Inhibition” value is recorded as 56.7% and the IC50 amounted to 119 nM.
With `CS(=O)(=O)Nc1cc(Cl)cc(NC(=O)c2cnn(-c3ccccc3Oc3cccc(F)c3)c2)c1` [Example 265], the “DHX9 Biochemical Max Inhibition” value came to 51.8% and the IC50 came out at 8050 nM.
For the molecule `CN1CCC(c2ccc(-n3cc(C(=O)Nc4cc(Cl)cc(NS(C)(=O)=O)c4)cn3)nc2)CC1=O` (stereo not drawn) [Example 266], the “DHX9 Biochemical Max Inhibition” value came out at 64.4% and the IC50 was 13.1 nM.
Consider `CS(=O)(=O)Nc1cc(Cl)cc(NC(=O)c2cc(C(F)(F)F)n(-c3ccc(F)cn3)c2)c1` [Example 267], for which the “DHX9 Biochemical Max Inhibition” value is reported as 66.4% and the IC50 amounted to 248 nM.
Regarding `Cn1cc(C(=O)Nc2cc(Cl)cc(NS(C)(=O)=O)c2)cc1-c1ncc(F)cc1OCc1cnco1` [Example 268], the “DHX9 Biochemical Max Inhibition” value is on record as 73.1% and the IC50 was 9.4 nM.
For the molecule `Cc1cc(C(=O)Nc2cc(Cl)cc(NS(C)(=O)=O)c2)cn1-c1ccc(N(C)C2CCOC2)cn1` (stereo not drawn) [Example 269], the “DHX9 Biochemical Max Inhibition” value is given as 76.9% and the IC50 amounted to 4.4 nM.
As for `Cc1cc(C(=O)Nc2cc(Cl)cc(NS(C)(=O)=O)c2)cn1-c1ccc(N2CCCC2)cn1` [Example 270], the “DHX9 Biochemical Max Inhibition” value is 74.1% and the IC50 worked out at 9.7 nM.
On to `CS(=O)(=O)Nc1cc(Cl)cc(NC(=O)c2cc(C(F)(F)F)n(-c3ccc(N4CCOCC4)cn3)c2)c1` [Example 271], for which the “DHX9 Biochemical Max Inhibition” value came out at 66.1% and the IC50 came to 86.5 nM.
Turning to `Cc1cc(C(=O)Nc2cc(Cl)cc(NS(C)(=O)=O)c2)cn1-c1ccc(N2CCOC(C)(C)C2)cn1` [Example 272], the “DHX9 Biochemical Max Inhibition” value came to 71.6% and the IC50 turned out to be 5.4 nM.
As for `Cn1cc(C(=O)Nc2cc(Cl)cc(NS(C)(=O)=O)c2)cc1-c1ccc(N2CCOCC2)cn1` [Example 273], the “DHX9 Biochemical Max Inhibition” value is reported as 71.4% and the IC50 amounted to 6.5 nM.
In the case of `CCn1cc(C(=O)Nc2cc(Cl)cc(NS(C)(=O)=O)c2)cc1-c1ccc(N2CCOCC2)cn1` [Example 274], the “DHX9 Biochemical Max Inhibition” value is given as 72.1% and the IC50 worked out at 32.2 nM.
As for `CS(=O)(=O)Nc1cc(Cl)cc(NC(=O)c2cc(-c3ccc(N4CCOCC4)cn3)n(CC(F)(F)F)c2)c1` [Example 275], the “DHX9 Biochemical Max Inhibition” value came out at 75.1% and the IC50 was 76.2 nM.
The like results for `Cc1cc(C(=O)Nc2cc(Cl)cc(NS(C)(=O)=O)c2)cn1-c1ccc(N2CC3(COC3)C2)cn1` [Example 276] were, in that order, 73.8% and 4.7 nM.
`Cn1cc(C(=O)Nc2cc(Cl)cc(NS(C)(=O)=O)c2)cc1-c1ccc(N2CC3(COC3)C2)cn1` [Example 277]: the “DHX9 Biochemical Max Inhibition” value came to 72.5% and the IC50 was determined as 4.3 nM.
The corresponding values for `CS(=O)(=O)Nc1cc(Cl)cc(NC(=O)c2cc(-c3ccc(N4CC5(COC5)C4)cn3)n(CC(F)(F)F)c2)c1` [Example 278] are 74.1% and 44.2 nM.
Take `Cn1cc(C(=O)Nc2cc(Cl)cc(NS(C)(=O)=O)c2)cc1-c1ncccc1OCc1nccs1` [Example 279]: the “DHX9 Biochemical Max Inhibition” value came to 73.2% and the IC50 amounted to 4 nM.
Regarding `Cc1cc(C(=O)Nc2cc(Cl)cc(NS(C)(=O)=O)c2)cn1-c1ncccc1OCc1nccs1` [Example 280], the “DHX9 Biochemical Max Inhibition” value was 76.3% and the IC50 is 326 nM.
Consider `Cc1cc(C(=O)Nc2cc(Cl)cc(NS(C)(=O)=O)c2)cn1-c1ncccc1O` [Example 281], for which the “DHX9 Biochemical Max Inhibition” value is on record as 75.7% and the IC50 is 28 nM.
The like results for `Cc1cc(C(=O)Nc2cc(Cl)cc(NS(C)(=O)=O)c2)cn1C1CCCC1` [Example 282] were, in that order, 72.4% and 96.4 nM.
Take `Cc1cc(C(=O)Nc2cc(Cl)cc(NS(C)(=O)=O)c2)cn1-c1ccc(N2CCN(C(=O)C(C)C)CC2)cn1` [Example 283]: the “DHX9 Biochemical Max Inhibition” value is reported as 78% and the IC50 came out at 29.2 nM.
As for `Cc1cc(C(=O)Nc2cc(Cl)cc(NS(C)(=O)=O)c2)cn1-c1ccc(N2CCN(C(=O)N(C)C)CC2)cn1` [Example 284], the “DHX9 Biochemical Max Inhibition” value is reported as 79.6% and the IC50 is 4.1 nM.
`Cc1cc(C(=O)Nc2cc(Cl)cc(NS(C)(=O)=O)c2)cn1-c1ccc(N2CCS(=O)(=O)CC2)cn1` [Example 285]: the “DHX9 Biochemical Max Inhibition” value turned out to be 70.6% and the IC50 turned out to be 5.4 nM.
The like results for `CS(=O)(=O)Nc1cc(Cl)cc(NC(=O)c2cc(-c3ccc(F)cn3)n(CC(F)F)c2)c1` [Example 286] were, in that order, 72.9% and 240 nM.
In the case of `CC(O)c1cc(C(=O)Nc2cc(Cl)cc(NS(C)(=O)=O)c2)cn1-c1ccccn1` (stereo not drawn) [Example 287], the “DHX9 Biochemical Max Inhibition” value worked out at 82.6% and the IC50 was found to be 19.1 nM.
With `CS(=O)(=O)Nc1cc(Cl)cc(NC(=O)c2cc3cnccc3s2)c1` [Example 288], the “DHX9 Biochemical Max Inhibition” value came out at 58.7% and the IC50 came to 132 nM.
The corresponding values for `CS(=O)(=O)Nc1cc(Cl)cc(NC(=O)c2cc3ncccc3s2)c1` [Example 289] are 66.9% and 80.6 nM.
